# Measurements taken from patent US12150940B2, “WASp-protecting small molecules, compositions, methods and uses thereof in the treatment of innate and acquired immune-related disorders or conditions” (BAR ILAN UNIVERSITY, priority 2016, dated 2024).
# Molecular target: T1, WASp (Homo sapiens, UniProt P42768)
# T1 construct: endogenous in cells; host or cells: primary human platelets from healthy donors
# T1 sequence (P42768 1-502): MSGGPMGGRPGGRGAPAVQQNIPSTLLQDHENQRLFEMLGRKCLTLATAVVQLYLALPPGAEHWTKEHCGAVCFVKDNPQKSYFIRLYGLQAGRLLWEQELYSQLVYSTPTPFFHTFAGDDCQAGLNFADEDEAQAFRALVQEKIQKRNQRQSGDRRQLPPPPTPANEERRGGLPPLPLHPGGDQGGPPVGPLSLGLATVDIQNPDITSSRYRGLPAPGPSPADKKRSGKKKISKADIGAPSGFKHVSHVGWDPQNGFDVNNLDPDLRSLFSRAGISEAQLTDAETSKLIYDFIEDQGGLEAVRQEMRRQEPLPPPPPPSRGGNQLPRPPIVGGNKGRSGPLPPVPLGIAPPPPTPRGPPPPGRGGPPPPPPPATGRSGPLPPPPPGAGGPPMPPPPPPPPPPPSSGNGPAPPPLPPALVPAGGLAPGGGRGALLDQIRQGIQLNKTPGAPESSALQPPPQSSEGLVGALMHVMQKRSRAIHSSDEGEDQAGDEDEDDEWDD
# Test: WASp ubiquitylation in PBMCs (immunoprecipitation, anti-ubiquitin blot)
# Format: cell-based
# Settings: vs activated negative control cells
# Method: FIGS. 12C and 12D. show freshly-isolated PBMCs that were either co-stimulated (+) with anti-CD3 and anti-CD28 or unstimulated (−). The PBMCs were pre-incubated at 37° C. for 15 min with either DMSO or the indicated WASp-binding SMCs (FIG. 12C—SMC #6; FIG. 12D—SMC #33), followed by lysis. WASp ubiquitylation was determined by immunoprecipitation as in FIG. 12A-12B. Ubiquitylated WASp appears as a smear of bands above the MW of 65 kDa with a prominent band at […]. Blots are representative of three independent experiments.
# Immunoprecipitations and western blotting analysis were performed as previously described (Reicher et al, 2012). Briefly, platelets (2×10^8 cells per sample) were lysed by the addition of an equal volume of 2× lysis buffer (30 mM HEPES pH7.4, 300 mM NaCl, 2 mM phenylmethyl sulfonyl fluoride (PMSF), 2 mM sodium orthovanadate, 2% Triton X-100 and complete protease inhibitor tablets (Roche)). MEG-01 cells (2×10^7 cells per sample) were lysed in 1.25× lysis buffer. Proteasome activity was blocked by addition of MG132 (AdooQ) to platelets and Meg-01 cell medium at final concentration of 10 μM, for 1 h before the cells were harvested. Densitometric analysis of band intensities was performed with ImageJ software, with final results normalized with WASp or GAPDH as loading controls for immunoprecipitated samples and whole-cell lysates, respectively. […]
smiles,measurement,value
"Cc1ccccc1N(CC(=O)NCc1ccccc1)C(=O)CCC(=O)Nc1nccs1 [SMC #33, N′-[2-(benzylamino)-2-oxoethyl]-N′-(2-methylphenyl)-N-(1,3-thiazol-2-yl)butanediamide]",ubiquitylation of WASp in active lymphocytes,downregulated
"CC(=O)N[C@H]1C[C@@H](c2ccc3c(c2)nnn3C)O[C@@H](c2ccc(Cl)cc2)C1 [SMC #6, N-[(2R,4R,6S)-2-(4-chlorophenyl)-6-(1-methylbenzotriazol-5-yl)oxan-4-yl]acetamide]",ubiquitylation of WASp in active lymphocytes,downregulated
